{
  "source": "patent US6753345B2",
  "about": "“7-hexanolytaxol and methods for preparing the same” (Hauser, Inc., priority 1998, dated 2004)",
  "key": {"[1]": {"test_system": "cell line panel (60 lines, nine disease-related subpanels)"}, "CCRF-CEM": {"test_system": "CCRF-CEM", "settings": "human, 48 h"}, "MDA-N": {"test_system": "MDA-N", "test": "SRB cytotoxicity screening assay (Breast Cancer)"}, "MDR+ cell line": {"test_system": "MDR+ cell line", "test": "Multidrug resistant cell line screening (MDR ratio)", "assay_type": "cell-based", "source_text": "The compound of the present invention was further tested on multidrug resistant cell lines. The resistance of cancer cells to multiple chemotherapeutic drugs which are structurally unrelated has been termed “multidrug resistance.” In the past several years, several mechanisms of multidrug resistance have been described, including the expression of a cell surface multidrug efflux pump (P-glycoprotein or the multidrug transporter), altered glutathione metabolism, reduced activity of topoisomerase II, and various less clearly defined changes in cellular proteins. Because of evidence that expression of P-glycoprotein is associated with drug-resistance in cancer, P-glycoprotein has been studied extensively from the point of view of its biochemistry and mechanism of action in order to develop inhibitors which can be used clinically to reverse drug resistance of cancers in patients. The clinical significance of the other mechanisms of multidrug resistance are less well-established, but many model systems indicate that they may contribute to clinical resistance."}, "MDA-MB-468": {"test_system": "MDA-MB-468", "test": "SRB cytotoxicity screening assay (Breast Cancer)"}, "SK-OV-3": {"test_system": "SK-OV-3", "test": "SRB cytotoxicity screening assay (Ovarian)"}, "SF-268": {"test_system": "SF-268", "test": "SRB cytotoxicity screening assay (CNS Cancer)"}, "MAXF 401": {"test_system": "MAXF 401", "test": "SRB cytotoxicity screening assay (Breast Cancer)", "assay_type": "cell-based", "settings": "MAXF 401 (Breast Cancer), 48 hour incubation"}, "CAKI-1": {"test_system": "CAKI-1", "test": "SRB cytotoxicity screening assay (Renal Cancer)"}, "SK-MEL-28": {"test_system": "SK-MEL-28", "test": "SRB cytotoxicity screening assay (Melanoma)"}, "NCI-H23": {"test_system": "NCI-H23", "test": "SRB cytotoxicity screening assay (Non-Small Cell Lung Cancer)"}, "SF-295": {"test_system": "SF-295", "test": "SRB cytotoxicity screening assay (CNS Cancer)"}, "SNB-75": {"test_system": "SNB-75", "test": "SRB cytotoxicity screening assay (CNS Cancer)"}, "MDA-MB-435": {"test_system": "MDA-MB-435", "test": "SRB cytotoxicity screening assay (Breast Cancer)"}, "SK-BR-3": {"test_system": "SK-BR-3", "test": "SRB cytotoxicity screening assay (Breast Cancer)"}, "SK-MEL-5": {"test_system": "SK-MEL-5", "test": "SRB cytotoxicity screening assay (Melanoma)"}},
  "data": [
    {"smiles": "CC(=O)O[C@H]1C(=O)[C@@]2(C)[C@H]([C@H](OC(=O)c3ccccc3)[C@]3(O)C[C@H](OC(=O)[C@H](O)[C@@H](NC(=O)c4ccccc4)c4ccccc4)C(C)=C1C3(C)C)[C@]1(OC(C)=O)CO[C@@H]1C[C@@H]2O", "note": "[Paclitaxel, paclitaxel, reference compound]", "values": [
      {"measurement": "Log10 LC50, Range", "setting": "[1]", "value": 0.45},
      {"measurement": "Log10 LC50", "setting": "CCRF-CEM", "value": ">−4.00", "unit": "molar"}
    ]},
    {"smiles": "CCCCCC(=O)O[C@H]1C[C@H]2OC[C@@]2(OC(C)=O)[C@H]2[C@H](OC(=O)c3ccccc3)[C@]3(O)C[C@H](OC(=O)[C@H](O)[C@@H](NC(=O)c4ccccc4)c4ccccc4)C(C)=C([C@@H](OC(C)=O)C(=O)[C@]12C)C3(C)C", "note": "[7-hexanoyltaxol]", "values": [
      {"measurement": "GI50", "setting": "MDA-N; Homo sapiens, MDA-N, 48 h, read-out: Log10 GI50 (converted)", "value": "< 10", "unit": "nM"},
      {"measurement": "CC50", "setting": "MDA-N; Homo sapiens, MDA-N, 48 h, read-out: Log10 LC50 (converted)", "value": "< 10", "unit": "nM"},
      {"measurement": "Log10 TGI", "setting": "MDA-N; MDA-N (Breast Cancer), PG=0, 48 hour incubation", "value": "<−8.00", "unit": "molar"},
      {"measurement": "MDR (ratio of two IC50 values, numerator is an MDR+ cell line)", "setting": "MDR+ cell line; higher numbers = less effective vs. MDR cells", "value": 1},
      {"measurement": "effectiveness against multidrug resistant cell lines compared with paclitaxel", "setting": "MDR+ cell line; multidrug resistant cell lines", "value": "vastly more effective than paclitaxel"},
      {"measurement": "GI50", "setting": "MDA-MB-468; Homo sapiens, MDA-MB-468, 48 h, read-out: Log10 GI50 (converted)", "value": "< 10", "unit": "nM"},
      {"measurement": "CC50", "setting": "MDA-MB-468; Homo sapiens, MDA-MB-468, 48 h, read-out: Log10 LC50 (converted)", "value": "> 100000", "unit": "nM"},
      {"measurement": "Log10 TGI", "setting": "MDA-MB-468; MDA-MB-468 (Breast Cancer), PG=0, 48 hour incubation", "value": "−6.26", "unit": "molar"},
      {"measurement": "GI50", "setting": "SK-OV-3; Homo sapiens, SK-OV-3, 48 h, read-out: Log10 GI50 (converted)", "value": "< 10", "unit": "nM"},
      {"measurement": "CC50", "setting": "SK-OV-3; Homo sapiens, SK-OV-3, 48 h, read-out: Log10 LC50 (converted)", "value": 91200, "unit": "nM"},
      {"measurement": "Log10 TGI", "setting": "SK-OV-3; SK-OV-3 (Ovarian), PG=0, 48 hour incubation", "value": "−4.84", "unit": "molar"},
      {"measurement": "GI50", "setting": "SF-268; Homo sapiens, SF-268, 48 h, read-out: Log10 GI50 (converted)", "value": "< 10", "unit": "nM"},
      {"measurement": "CC50", "setting": "SF-268; Homo sapiens, SF-268, 48 h, read-out: Log10 LC50 (converted)", "value": "> 100000", "unit": "nM"},
      {"measurement": "Log10 TGI", "setting": "SF-268; SF-268 (CNS Cancer), PG=0, 48 hour incubation", "value": "−4.95", "unit": "molar"},
      {"measurement": "GI50", "setting": "MAXF 401; Homo sapiens, MAXF401, PG=+50, read-out: Log10 GI50 (converted)", "value": "< 10", "unit": "nM"},
      {"measurement": "Log10 TGI", "setting": "MAXF 401; PG=0", "value": "<−8.00", "unit": "molar"},
      {"measurement": "Log10 TGI", "setting": "CAKI-1; CAKI-1 (Renal Cancer), PG=0, 48 hour incubation", "value": "−4.52", "unit": "molar"},
      {"measurement": "GI50", "setting": "CAKI-1; Homo sapiens, CAKI-1, 48 h, read-out: Log10 GI50 (converted)", "value": 263, "unit": "nM"},
      {"measurement": "CC50", "setting": "CAKI-1; Homo sapiens, CAKI-1, 48 h, read-out: Log10 LC50 (converted)", "value": "> 100000", "unit": "nM"},
      {"measurement": "GI50", "setting": "SK-MEL-28; Homo sapiens, SK-MEL-28, 48 h, read-out: Log10 GI50 (converted)", "value": "< 10", "unit": "nM"},
      {"measurement": "CC50", "setting": "SK-MEL-28; Homo sapiens, SK-MEL-28, 48 h, read-out: Log10 LC50 (converted)", "value": "> 100000", "unit": "nM"},
      {"measurement": "Log10 TGI", "setting": "SK-MEL-28; SK-MEL-28 (Melanoma), PG=0, 48 hour incubation", "value": "−4.33", "unit": "molar"},
      {"measurement": "GI50", "setting": "NCI-H23; Homo sapiens, NCI-H23, 48 h, read-out: Log10 GI50 (converted)", "value": "< 10", "unit": "nM"},
      {"measurement": "CC50", "setting": "NCI-H23; Homo sapiens, NCI-H23, 48 h, read-out: Log10 LC50 (converted)", "value": 45700, "unit": "nM"},
      {"measurement": "Log10 TGI", "setting": "NCI-H23; NCI-H23 (Non-Small Cell Lung Cancer), PG=0, 48 hour incubation", "value": "−4.86", "unit": "molar"},
      {"measurement": "GI50", "setting": "SF-295; Homo sapiens, SF-295, 48 h, read-out: Log10 GI50 (converted)", "value": "< 10", "unit": "nM"},
      {"measurement": "CC50", "setting": "SF-295; Homo sapiens, SF-295, 48 h, read-out: Log10 LC50 (converted)", "value": "> 100000", "unit": "nM"},
      {"measurement": "Log10 TGI", "setting": "SF-295; SF-295 (CNS Cancer), PG=0, 48 hour incubation", "value": "−6.41", "unit": "molar"},
      {"measurement": "GI50", "setting": "SNB-75; Homo sapiens, SNB-75, 48 h, read-out: Log10 GI50 (converted)", "value": "< 10", "unit": "nM"},
      {"measurement": "CC50", "setting": "SNB-75; Homo sapiens, SNB-75, 48 h, read-out: Log10 LC50 (converted)", "value": "> 100000", "unit": "nM"},
      {"measurement": "Log10 TGI", "setting": "SNB-75; SNB-75 (CNS Cancer), PG=0, 48 hour incubation", "value": "−7.41", "unit": "molar"},
      {"measurement": "GI50", "setting": "MDA-MB-435; Homo sapiens, MDA-MB-435, 48 h, read-out: Log10 GI50 (converted)", "value": "< 10", "unit": "nM"},
      {"measurement": "CC50", "setting": "MDA-MB-435; Homo sapiens, MDA-MB-435, 48 h, read-out: Log10 LC50 (converted)", "value": "< 10", "unit": "nM"},
      {"measurement": "Log10 TGI", "setting": "MDA-MB-435; MDA-MB-435 (Breast Cancer), PG=0, 48 hour incubation", "value": "<−8.00", "unit": "molar"},
      {"measurement": "GI50", "setting": "SK-BR-3; Homo sapiens, SK-BR-3, 48 h, read-out: Log10 GI50 (converted)", "value": "< 10", "unit": "nM"},
      {"measurement": "CC50", "setting": "SK-BR-3; Homo sapiens, SK-BR-3, 48 h, read-out: Log10 LC50 (converted)", "value": "> 100000", "unit": "nM"},
      {"measurement": "Log10 TGI", "setting": "SK-BR-3; SK-BR-3 (Breast Cancer), PG=0, 48 hour incubation", "value": "−6.04", "unit": "molar"},
      {"measurement": "GI50", "setting": "SK-MEL-5; Homo sapiens, SK-MEL-5, 48 h, read-out: Log10 GI50 (converted)", "value": "< 10", "unit": "nM"},
      {"measurement": "CC50", "setting": "SK-MEL-5; Homo sapiens, SK-MEL-5, 48 h, read-out: Log10 LC50 (converted)", "value": "> 100000", "unit": "nM"},
      {"measurement": "Log10 TGI", "setting": "SK-MEL-5; SK-MEL-5 (Melanoma), PG=0, 48 hour incubation", "value": "−4.56", "unit": "molar"}
    ]}
  ]
}
